Experimental data as given in patent US20240109898A1, “SUBSTITUTED PYRAZOLO[1,5-A]PYRIMIDINE-7-AMINE DERIVATIVES, COMPOSITIONS AND PHARMACEUTICAL USES THEREOF” (SHANGHAI HAIYAN PHARMACEUTICAL TECHNOLOGY CO., LTD., priority 2021, published 2024).

How the values were obtained:
[1] = test system: MV4-11 acute myeloid leukemia xenografts; assay: In vivo pharmacodynamic assay, MV4-11 subcutaneous xenograft; parameters: species or system BALB/c nude mice; conditions: Table 5, oral, once a day
Experimental: In vivo pharmacodynamic assays were performed on (CDX)BALB/c nude mice implanted subcutaneously with MV4-11 acute myeloid leukemia […] xenografts derived from human tumor cell lines.
Experimental protocol: BALB/c nude mice, female, 6-10 weeks old, with weight of approximately 20-23 grams, were maintained in a specific pathogen-free environment, 5 mice in each cage, and 2 cages with 10 mice as one group. All the cages, bedding and water were disinfected before use. All animals had free access to a standard certified commercial laboratory diet. […] Each mouse was implanted subcutaneously with tumor cells (1×10^7 0.1 ml+Matrigel 0.1 ml) in the right flank for tumor growth. When the mean tumor volume reached approximately 165 mm^3, the tumors were randomly grouped according to body weight and tumor volume, and the administration of the compounds began. Test compounds were administered via oral gavage daily. Antitumor efficacy was determined by dividing the mean tumor volume increase of the animals treated with the compound by the mean tumor volume increase of untreated animals.
Tumor volumes were measured twice a week with two-dimensional calipers, and volumes were measured in cubic millimeters. Tumor volume TV=0.5a×b^2, where a represent a long diameter of the tumor and b represents a short diameter of the tumor.
Relative tumor proliferation rate T/C (%), i.e., a percentage value of relative tumor volume of treatment group to relative tumor volume of control group at a certain time point, can be calculated based on an equation of T/C %=TRTV/CRTV×100 (TRTV: mean RTV in treatment group; CRTV: mean RTV in solvent control group; RTV=Vt/V0, V0 being the tumor volume of the animal at the time of grouping, Vt being the tumor volume of the animal after treatment).
Body weight change (%) of tumor-bearing animals was calculated as follows:
(weight at measurement−weight at grouping)/weight at grouping×100.

[2] = In vivo pharmacokinetics in mice; conditions: mouse, plasma, po, male ICR mice, intragastric 10 mg/kg; for AUC(0-t): read-out: Area under the oral curve AUC0-t; for Cmax: read-out: Oral maximum plasma concentration Cmax(ng/mL)
Experimental: To investigate the pharmacokinetic behaviors of the compounds according to the present disclosure in mice and evaluate the pharmacokinetic characteristics thereof, the plasma concentrations of the compounds according to the present disclosure in mice at different time points after intravenous injection and intragastric administration of the compounds were determined by LC/MS/MS.
Experimental Protocol: • Experimental animals: healthy adult male ICR mice (12 mice with body weight of 30-40 g, free water and diet for intravenous injection group, and fasted overnight for intragastric administration group, free water and diet after 4 hours of administration) were provided by Beijing Vital River Laboratory Animal Co. LTD; • Administration route and dosage: the ICR mice were administrated intravenously via the tail vein (2 mg/kg, 5% DMSO, pH 4.5 20% Captisol) and intragastrically (10 mg/kg, 5% DMSO, pH 4.5 20% Captisol).
Blood sample collection: prior to the administration, animals satisfying the experimental requirements were selected, weighed and marked. Before collecting blood samples, the mice were tied together, and the blood of each administrated mouse was collected at the respective scheduled time points (for the intravenous administration, the blood was collected at 0.083 h, 0.25 h, 0.5 h, 1 h, 2 h, 4 h, 6 h, 7.5 h, and 24 h after the administration, respectively, for a total of 9 time points; for the intragastric administration, the blood was collected at 0.083 h, 0.25 h, 0.5 h, 1 h, 2 h, 4 h, 6 h, 7.5 h, and 24 h after the administration, respectively, for a total of 9 time points), about 100 μL of blood was collected from orbit. The blood was transferred to a 1.5 mL tube, which was pre-filled with K2EDTA, centrifuged for 4 minutes (8000 rpm, 4° C.), and the plasma removed within 15 minutes, which all the steps were finished in 15 minutes after the collection of blood samples. All samples were stored in −20° C. refrigerator before sample analysis. The drug concentrations were determined using the LC/MS/MS method, the pharmacokinetic parameters of the compounds of some examples of the present disclosure in mice at the same dosage and administration routes were lists in Table 3: […]

[3] = molecular target: CDK9/CycT (Homo sapiens (Human), UniProt P50750); assay: LANCE Ultra kinase activity inhibition assay, CDK9/CycT; assay type: biochemical; conditions: ATP 10 μM, highest compound concentration 1 μM
Experimental: (§1) In the following LANCE Ultra test methods, kinase reagents were purchased from Carna Bioscience, reaction substrates and detection reagents were purchased from PerkinElmer, and the remaining reagents were purchased from Thermo scientific.
The inhibiting effects on the kinase activity of CDK1/CycB (Carna bioscience, #04-102), CDK2/CycA (Carna bioscience, #04-103) and CDK9/CycT (Carna bioscience, #04-110) were determined by using LANCE Ultra method.
The kinase activity test was performed using a system (10 μL) containing the following components: substrate diluent prepared by mixing CDK kinase diluent, Ulight-Myelic basic protein (Perkin Elmer, #TRF-0109, hereinafter referred to as U-MBP) and ATP (Thermo scientific, #PV3227); and the compounds (i.e., analyte) prepared in the examples of the present disclosure. The assay for each kinase includes three test groups, i.e., a background group (Blank), a non-inhibition group (PC), and compound testing group (Test). The components included in each test group were as follows:
(§2) Working concentrations of the respective components of the Test groups in different kinase reactions were as follows.
(§3) Compounds: 10 mM of the compound to be tested was dissolved at room temperature and diluted with DMSO to gradient concentrations, followed by diluting with deionized water to prepare a 4× working solution of the compound, and the content of DMSO was 2%. The highest concentration of compound used in the CDK1 and CDK2 assays was 10 μM, and that in CDK9 assay was 1 μM.
1.33×reaction buffer: the components include 26.7 mM of MOPS, 6.67 mM of MgCl2, and 0.0133% Tween-20, which were stored in a 4° C. refrigerator and protected from light after preparation. Freshly prepared DTT was added to a final concentration of 5.33 mM before use.
(§4) The working concentration of DMSO in the reaction was 0.5%.
(§5) The above-mentioned components, after being mixed, were placed on a shaker and incubated at room temperature in the dark for 1 h. 10 μL of test solution was then added to all test groups (including Blank, PC and Test groups).
10 μL of test solution contains the following components: 16 mM of EDTA (Thermo scientific, #15575), 1 nM of phosphorylated U-MBP protein antibody (Perkin Elmer, #TRF-0201), and 1× detection damping fluid (Perkin Elmer, #CR97-100).
After the test solution was added, the solution was placed on a shaker and continually incubated at room temperature for 1 h in the dark. At the end of incubation, Victor X5 fluorescence microplate reader of Perkin Elmer was used to read the signal; the wavelength of excitation light was 320 nm, and the wavelengths of emission light were 615 nm and 665 nm. The inhibition rate was calculated as below.
1. For all groups, a value of 665 nm/615 nm (hereinafter referred to as Ratio) was calculated, and an inhibition rate was calculated based on the Ratio of each group;
(§6) 2. Inhibition rate=(PCRatio-TestRatio)/(PCRatio-BlankRatio)*100%; and
(§7) 3. XLFIT 5.0 software (IDBS, UK) was used to fit a graph by using the logarithmic value of the compound concentration as the X-axis and the inhibition rater as the Y-axis, and a four-parameter model was used to calculate the half inhibitory concentration IC50 of the compound.

[4] = molecular target: CDK2/CycA (Homo sapiens (Human), UniProt P24941); assay: LANCE Ultra kinase activity inhibition assay, CDK2/CycA; assay type: biochemical; conditions: ATP 10 μM, highest compound concentration 10 μM
Source text: as §1
(§8) The assay for each kinase includes three test groups, i.e., a background group (Blank), a non-inhibition group (PC), and compound testing group (Test). The components included in each test group were as follows:
as §2, §3, §4, §5
(§9) After the test solution was added, the solution was placed on a shaker and continually incubated at room temperature for 1 h in the dark. […] The inhibition rate was calculated as below.
as §6, §7

[5] = molecular target: CDK1/CycB (Homo sapiens (Human), UniProt P06493); assay: LANCE Ultra kinase activity inhibition assay, CDK1/CycB; assay type: biochemical; conditions: ATP 4 μM, highest compound concentration 10 μM
Source text: as §1, §8, §2, §3, §4, §5, §9, §6, §7

Chain of CDK1/CycB (P06493 whole entry): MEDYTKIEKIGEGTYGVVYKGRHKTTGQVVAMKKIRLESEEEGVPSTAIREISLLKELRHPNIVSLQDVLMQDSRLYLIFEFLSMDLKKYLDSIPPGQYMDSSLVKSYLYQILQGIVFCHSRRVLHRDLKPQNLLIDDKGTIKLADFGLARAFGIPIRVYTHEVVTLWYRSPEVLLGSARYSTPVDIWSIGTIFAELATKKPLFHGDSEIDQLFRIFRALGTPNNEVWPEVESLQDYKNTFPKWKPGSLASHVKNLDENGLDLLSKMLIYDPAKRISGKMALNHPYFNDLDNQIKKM
Chain of CDK1/CycB (P14635 whole entry partner): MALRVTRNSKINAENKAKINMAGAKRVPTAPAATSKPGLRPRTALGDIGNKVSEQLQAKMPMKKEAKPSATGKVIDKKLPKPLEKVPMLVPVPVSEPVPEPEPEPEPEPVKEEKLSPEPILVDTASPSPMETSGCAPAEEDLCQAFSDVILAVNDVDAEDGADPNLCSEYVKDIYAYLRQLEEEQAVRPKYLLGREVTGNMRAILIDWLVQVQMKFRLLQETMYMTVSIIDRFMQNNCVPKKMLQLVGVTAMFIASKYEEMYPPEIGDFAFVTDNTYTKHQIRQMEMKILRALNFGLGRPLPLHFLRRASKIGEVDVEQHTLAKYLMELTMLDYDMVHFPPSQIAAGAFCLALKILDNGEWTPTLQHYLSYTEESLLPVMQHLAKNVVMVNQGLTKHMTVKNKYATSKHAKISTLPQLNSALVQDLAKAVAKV
Chain of CDK9/CycT (P50750 whole entry): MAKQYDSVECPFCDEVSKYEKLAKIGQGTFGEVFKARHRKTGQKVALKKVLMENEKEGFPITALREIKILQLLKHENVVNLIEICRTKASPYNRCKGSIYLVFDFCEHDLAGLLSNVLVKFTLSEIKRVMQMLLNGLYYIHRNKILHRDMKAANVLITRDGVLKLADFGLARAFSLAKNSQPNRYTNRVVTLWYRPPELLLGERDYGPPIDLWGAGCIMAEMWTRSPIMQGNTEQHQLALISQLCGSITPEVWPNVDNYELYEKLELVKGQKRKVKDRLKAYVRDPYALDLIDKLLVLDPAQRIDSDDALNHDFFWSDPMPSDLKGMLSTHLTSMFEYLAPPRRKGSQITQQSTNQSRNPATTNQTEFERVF
Chain of CDK9/CycT (O60563 whole entry partner): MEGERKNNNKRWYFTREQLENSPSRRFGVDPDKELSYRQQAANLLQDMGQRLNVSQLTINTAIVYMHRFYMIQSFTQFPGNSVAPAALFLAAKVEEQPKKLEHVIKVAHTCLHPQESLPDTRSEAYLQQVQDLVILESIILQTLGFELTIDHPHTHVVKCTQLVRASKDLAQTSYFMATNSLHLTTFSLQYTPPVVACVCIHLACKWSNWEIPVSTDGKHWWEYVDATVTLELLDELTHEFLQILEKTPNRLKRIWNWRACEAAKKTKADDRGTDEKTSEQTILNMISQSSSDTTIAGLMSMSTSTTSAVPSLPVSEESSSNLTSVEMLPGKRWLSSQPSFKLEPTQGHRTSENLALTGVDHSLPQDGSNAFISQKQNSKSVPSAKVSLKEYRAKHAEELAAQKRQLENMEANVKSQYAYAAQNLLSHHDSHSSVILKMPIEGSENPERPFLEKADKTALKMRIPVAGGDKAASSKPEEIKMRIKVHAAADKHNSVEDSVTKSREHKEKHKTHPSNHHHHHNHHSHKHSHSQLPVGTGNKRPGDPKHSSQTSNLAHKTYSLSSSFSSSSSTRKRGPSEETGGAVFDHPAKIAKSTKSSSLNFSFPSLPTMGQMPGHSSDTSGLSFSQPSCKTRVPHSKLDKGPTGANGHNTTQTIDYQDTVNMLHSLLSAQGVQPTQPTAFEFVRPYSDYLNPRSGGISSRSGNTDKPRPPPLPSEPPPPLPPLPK

| SMILES | AUC(0-t) [2] | Cmax [2] | IC50 [3] | IC50 [4] | IC50 [5] | Average tumor weight ([1]; 12.5 mpk) | T/C(%) ([1]; 12.5 mpk) | Average tumor weight ([1]; 25 mpk) | T/C(%) ([1]; 25 mpk) | Average tumor weight ([1]; 5 mpk) | T/C(%) ([1]; 5 mpk) | Average tumor weight ([1]; 10 mpk) | T/C(%) ([1]; 10 mpk) |
| --- | --- | --- | --- | --- | --- | --- | --- | --- | --- | --- | --- | --- | --- |
| Cc1cnn2c(N[C@H]3CC[C@H](N)C3)cc(C(C3CC3)C3CC3)nc12 [Compound Z-9] | 7860 ng·h/mL | 740 ng/mL | 0.008 µM | 1.55 µM | 1.04 µM |  |  |  |  |  |  |  |  |
| Cc1cnn2c(N[C@H]3CC[C@H](N)C3)cc([C@@H](C)C3CC3)nc12 [Compound Z-32-P2] | 9410 ng·h/mL | 696 ng/mL | 0.056 µM | 6.82 µM | 8.22 µM |  |  |  |  |  |  |  |  |
| C=CC(C)(C)c1cc(N[C@H]2CC[C@H](N)C2)n2ncc(Cl)c2n1 [Compound Z-56] | 6090 ng·h/mL | 409 ng/mL | 0.013 µM | 3.78 µM | 2.48 µM |  |  |  |  |  |  |  |  |

Now from value to compound, other results behind:

| AUC(0-t) [2] | Cmax [2] | IC50 [3] | IC50 [4] | IC50 [5] | SMILES | Average tumor weight ([1]; 12.5 mpk) | T/C(%) ([1]; 12.5 mpk) | Average tumor weight ([1]; 25 mpk) | T/C(%) ([1]; 25 mpk) | Average tumor weight ([1]; 5 mpk) | T/C(%) ([1]; 5 mpk) | Average tumor weight ([1]; 10 mpk) | T/C(%) ([1]; 10 mpk) |
| --- | --- | --- | --- | --- | --- | --- | --- | --- | --- | --- | --- | --- | --- |
| 1190 ng·h/mL | 433 ng/mL |  |  |  | CCC(CC)c1cc(N[C@H]2CC[C@H](N)C2)n2nccc2n1 [Compound D, reference compound] | 0.43 g | 35.91% | 0.04 g | 2.90% |  |  |  |  |
| 1700 ng·h/mL | 690 ng/mL | 0.007 µM |  |  | C[C@H](c1cc(N[C@H]2CC[C@H](N)C2)n2nccc2n1)C1CC1 [Compound Z-5-2] |  |  |  |  | 0.72 g | 59.25% | 0.04 g | 3.45% |
| 2060 ng·h/mL | 786 ng/mL | 0.01 µM | 1.97 µM | 1.71 µM | C[C@H](c1cc(N[C@H]2C[C@H](N)C2)n2nccc2n1)C1CC1 [Compound Z-62-P1] |  |  |  |  |  |  |  |  |
